Measurements published in US20260337211A1, “IP5 SUBSTITUTED COMPOUNDS” (SANIFIT THERAPEUTICS, S.A., priority 2022, published 2026).

Experiment: In vitro inhibition of calcium phosphate crystallization in human plasma (spectrophotometric, 550 nm)
Type: biochemical
Settings: 0-100 μM compound, 1.5 mM phosphate and 12.5 mM calcium, pH 7.4, 30 min at rt, slope between 6 and 24 min, read-out: Relative Potency (EC50)
Protocol: The in vitro efficacy of the IP5 substituted compounds (e.g., Compounds 1 to 32) of the invention on the inhibition of calcium phosphate crystallization in human plasma samples was evaluated according to a spectrophotometric assay previously described in the art (Ferrer M, et al., Sci Rep 2017; 7:6858, doi:10.1038/s41598-017-07203-x).
A 96-well plate was employed. Plasma was spiked (1 volume of the IP5 substituted compounds of the invention per 19 volumes of plasma) with increasing concentrations of the derivatives in the range of 0-100 μM. Plasma was then centrifuged at 10,000 g at rt and subsequently mixed with a mixture of 5 mM hydrogen phosphate and 41.67 mM calcium to attain final concentrations of 1.5 mM phosphate and 12.5 mM calcium, respectively. All reagent solutions were filtered, and pH adjusted to 7.4.
Crystallization of calcium phosphate was monitored spectrophotometrically for 30 min at rt by measuring the increments in absorbance at 550 nm using the Biotek Powerwave XS Microplate spectrophotometer (BioTek Instruments, Inc., Winooski, VT, US). The plate was incubated at rt in an orbital shaker and absorbance measured every 3 min.
Plasma crystallization was assessed based on slope measurement in the linear range between 6 and 24 min from plots of increase in absorbance versus logarithm of time. The efficacy of different myo-inositol phosphates derivatives in preventing in vitro formation of calcium phosphate crystals was assessed in human plasma samples using the slopes obtained between 6- and 24-min. Inhibition of crystallization was measured by comparing the slopes of the control sample (blank plasma) with those of samples containing the inhibitor as shown below: […]
For “rac-1-O-(5-(4-(Methoxymethyl)-1H-1,2,3-triazol-1-yl)pentyl)-myo-inositol-2,3,4,5,6-pentakis(phosphate) decasodium salt [Compound 52]”, the EC50 was 5 to 10 µM.
“rac-1-O-(5-Acetamidopentyl)-myo-inositol-2,3,4,5,6-pentakis(phosphate) decasodium salt [Compound 49]” showed an EC50 of 5 to 10 µM.
For “rac-1-O-(9-Methoxynonyl)-myo-inositol-2,3,4,5,6-pentakis(phosphate) decasodium salt [Compound 47]”, the EC50 was at most 5 µM.
In the case of “rac-1-O-((1-(2-(Metoxycarbonyl)ethyl)-1H-1,2,3-triazol-4-yl)methyl)-myo-inositol-2,3,4,5,6-pentakis(phosphate) undecasodium salt [Compound 53]”, the EC50 is reported as 5 to 10 µM.
Work on “rac-1-O-Propyl-myo-inositol-2,3,4,5,6-pentakis(phosphate) decasodium salt [Compound 32]” yielded an EC50 of at most 5 µM.
“rac-4-O-(2-(4-Acetylpiperazin-1-yl)ethyl)-myo-inositol-1,2,3,5,6-pentakis(phosphate) decasodium salt [Compound 5]” gave an EC50 of at most 5 µM.
With “rac-4-O-(5-Acetamidopentyl)-myo-inositol-1,2,3,5,6-pentakis(phosphate) decasodium salt [Compound 19]” the EC50 was 5 to 10 µM.
For “rac-4-O-(5-Hydroxypentyl)-myo-inositol-1,2,3,5,6-pentakis(phosphate) decasodium salt [Compound 2]”, the EC50 was at most 5 µM.
“rac-4-O-(5-Methoxypentyl)-myo-inositol-1,2,3,5,6-pentakis(phosphate) decasodium salt [Compound 3]” showed an EC50 of at most 5 µM.
For “rac-4-O-(6,6,6-Trifluorohexyl)-myo-inositol-1,2,3,5,6-pentakis(phosphate) decasodium salt [Compound 13]”, the EC50 was at most 5 µM.
“rac-4-O-(6-(4-(carboxy)-1H-1,2,3-triazol-1-yl)hexyl)-myo-inositol-1,2,3,5,6-pentakis(phosphate) undecasodium salt [Compound 26]” showed an EC50 of over 10 µM.
With “rac-4-O-(6-Aminohexyl)-myo-inositol-1,2,3,5,6-pentakis(phosphate) decasodium salt [Compound 28]” the EC50 was at most 5 µM.
In the case of “rac-4-O-(7-Methoxyheptyl)-myo-inositol-1,2,3,5,6-pentakis(phosphate) decasodium salt [Compound 23]”, the EC50 is reported as 5 to 10 µM.
Substance “rac-4-O-(10-Carboxyldecyl)-myo-inositol-1,2,3,5,6-pentakis(phosphate) undecasodium salt [Compound 20]” has an EC50 of over 10 µM.
“rac-4-O-(10-Hydroxydecyl)-myo-inositol-1,2,3,5,6-pentakis(phosphate) decasodium salt [Compound 21]” showed an EC50 of over 10 µM.
Substance “rac-4-O-Methyl-myo-inositol-1,2,3,5,6-pentakis(phosphate) decasodium salt [Compound 22]” has an EC50 of 5 to 10 µM.
“rac-4-O-Pentyl-myo-inositol-1,2,3,5,6-pentakis(phosphate) decasodium salt [Compound 1]” showed an EC50 of at most 5 µM.
With “rac-4-O-Propyl-myo-inositol-1,2,3,5,6-pentakis(phosphate) decasodium salt [Compound 24]” the EC50 was at most 5 µM.
